In test [1] the test system is Chlamydomonas reinhardtii WT cultures. In words: H2 production ± CCCP, Clark type hydrogen electrode, WT cultures. In kind it is cell-based. To be noted: CCCP added to WT culture. Here is the method: (§1) H2 concentrations were measured in the liquid phase and the gaseous head space above, both for WT and Stm6 cultures (cell density of OD750 nm=0.8). Dissolved H2 concentrations were measured in 1 liter dark-adapted cell cultures in TAP medium replete with, or depleted of, sulfur using a Clark type hydrogen electrode (Unisense PA2000, Denmark) upon white light illumination. H2 concentrations in the presence and absence of 5 μM carbonylcyanide m-chlorophenylhydrazone (CCCP) were measured using dark adapted cultures (1 h) before and after illumination (white light, 300 μmol m^−2·s^−1) The H2 concentration in the gaseous head space was measured using a mass spectrometer (Delta Finnigan MAT). Cell cultures were dark-adapted for 30 min in a weak vacuum to deplete the medium and headspace of O2 and H2, prior to illumination with continuous or pulsed (3.3 Hz frequency, 5 μs flashes; light intensity range of 15-3000 μmol·m^−2·s^−1) white light.

The subject of test [2] is Chlamydomonas reinhardtii Stm6 cultures. In words: H2 production ± CCCP, Clark type hydrogen electrode, Stm6 cultures. In kind it is cell-based. Here is the method:
as §1

For the compound `N#CC(C#N)=NNc1cccc(Cl)c1` [CCCP, carbonylcyanide m-chlorophenylhydrazone], in test [1], the “effect of CCCP on H2 production” value was “hardly any effect”. The “period of increased H2 production with CCCP” value in test [2] (5 μM CCCP, Stm6 culture) was “at least 30 min”. Further, in test [2] (5 μM CCCP, dark adapted cultures (1 h), white light 300 μmol m^−2·s^−1, relative to WT), the “H2 production rate with CCCP, higher than in the WT” value is around 1500%. In addition, the “H2 production rate in the presence of CCCP, times higher than the WT” value in test [2] (Stm6 in the presence of CCCP, relative to WT) came to 15 ×.

Source of the values: patent US7371560B2, “Photosynthetic hydrogen production” (priority 2003, dated 2008).
